Legend:
[1] = Solubility in saline (0.9% aqueous sodium chloride solution) at 25° C.; format: physicochemical; conditions: saline or isotonic
Method: The solubility of the Example compounds of the present invention in saline (0.9% aqueous sodium chloride solution) at 25° C. was measured.

[2] = system: release of TNF α from LPS treated human whole blood; assay: Inhibitory activity of TNF α release from LPS treated human whole blood (ELISA); format: cell-based; conditions: LPS treated human whole blood diluted 4-fold, 24 hr, 37° C., TNF α by ELISA
Method: The inhibitory effect of each compound (compounds of Examples 2, 6, 7, 10, 11, 37, 147, 231 and 245) on the release of TNF α from LPS treated human whole blood [see: Lymphokine Res 8, 141-146 (1989)] was investigated.
Human whole blood was diluted 4-fold with RPMI1640 medium supplemented with 10% FCS. The diluted blood was dispensed to a 96 multi-well plate by 100 μl and equilibrated under the conditions of 37° C., 5% CO2. LPS (2 μg/ml) was prepared with RPMI1640 medium supplemented with 10% FCS and a culture broth prepared by dissolving each compound (dissolved in dimethyl sulfoxide) in the LPS solution was added by 100 μl/well (final concentrated of dimethyl sulfoxide 0.1%), which was followed by incubation for 24 hr (37° C., 5% CO2). After the incubation, the reaction mixture was centrifuged (1,500 rpm, 5 min). The culture supernatant (40 μl/well) was collected, and TNF α amount in the supernatant was quantitatively measured by ELISA. The TNF α release inhibitory effect by each compound was calculated from the proportion of release TNF α amount of the compound addition group relitive to that of the compound non-addition group.

[3] = system: release of TNF α from THP-1 cells; assay: Inhibitory activity of TNF α release from THP-1 cells (LPS, ELISA); format: cell-based; conditions: Homo sapiens, 3 hr, 37° C., TNF α by ELISA
Method: The inhibitory effect of each compound (compounds of Examples 1, 2, 3, 6, 35, 39 and 44) on the release of TNF α from THP-1 cells which are monocyte cultured cells [see Nature 370, 218-220 (1994)] was investigated.
The THP-1 cells were suspended to a concentration of 1×10 ^6 cells/ml in RPMI1640 medium supplemented with 10% fetal calf serum (FCS) and dispensed by 100 μl. A 2 μg/ml LPS was prepared with RPMI1640 medium supplemented with 10% FCS. Each compound (dissolved in dimethyl sulfoxide) was diluted 500-fold with the LPS solution.
The diluted solutions of these compounds were added to the dispensed cell suspensions by 100 μl and allowed for 3 hr to react under the conditions of 37° C., 5% CO2. After the completion of the reaction, the reaction mixture was centrifuged and the culture supernatant was collected. The TNF α amount was quantitatively measured by ELISA (enzyme-linked immunosorbent assay). The TNF α release inhibitory effect by each compound was calculated from the proportion of released TNF α amount of the compound addition group relative to that of the compound non-addition group.

- solubility [1]: > 20 mg/mL
- IC50 [2]: 1.39 µM
- IC50 [3]: 0.66 µM
Compound: CC(C)C[C@@H](C(=O)N[C@@H](Cc1ccc(OS(=O)(=O)[O-])cc1)C(=O)c1ccco1)C(CN1C(=O)c2ccccc2C1=O)C(=O)NO.[Na+] (single isomer, unassigned) [Example 6, Sodium Salt of 3(R)-[1(S)-(2-furyl)carbonyl-2-[4-(hydroxysulfonyloxy)phenyl]]ethylcarbamoyl-5-methyl-2(R or S)-phthalimidomethylhexanohydroxamic Acid]
